The target in one test is T1, IRAK1 (Homo sapiens, UniProt P51617).
T1 construct: purchased Reaction Biology (RBC), HotSpot kinase assay
The test can be described thus: RBC HotSpot Kinase Assay, IRAK1. It is filed as biochemical. To be noted: isolated kinase, 33P-ATP. The method, boiled down:
(§1)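 Radiometric filter-binding activity assay with isolated, possibly truncated kinases in 20 mM Hepes pH 7.5, 10 mM MgCl2, 1 mM EGTA, 2 mM DTT, 1% DMSO plus cofactors. Compound preincubated with kinase and substrate 20 min, then 33P-ATP added for 2 h at room temperature.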

The next test deals with MOLM14 D835Y cells. The test can be described thus: MOLM14 D835Y cell viability assay (Cell Titer Glo). It is filed as cell-based. The following applies: Homo sapiens, MOLM-14, 48 h. The procedure: (§2) Both cell lines have activated FLT3 receptors, each of which carry additional resistance mutations in the kinase domain (D835Y and F691L, respectively).
(§3) MOLM14 D835Y and MOLM14 F691L cells were grown in RPMI-1640 media supplemented with 20% fetal bovine serum (FBS). For viability/cytotoxicity assessments, cells were seeded into 1536-well white polystyrene tissue culture-treated Greiner plates using a Multidrop Combi dispenser (ThermoFisher), in final volume 5 μL of growth media per well, at a density of 1000 cells per well. After cell addition, 23 nL of test compound were transferred into individual wells (22 doses tested for each test compound, with a 1:2 dilution series starting at 10 μM) via a 1536 pin-tool. Bortezomib (final concentration 2.3 μM) was used as a positive control for cell cytotoxicity. Plates were incubated for 48 hours at standard incubator conditions covered by a stainless steel gasketed lid to prevent evaporation. 48 hours post compound addition, 3 μL of Cell Titer Glo (Promega) were added to each well and plates were incubated at room temperature for 15 minutes with the stainless-steel lid in place. Luminescence readings were taken using a Viewlux imager (PerkinElmer) with a 2 second exposure time per plate.
In general terms: ATP-based viability assays read luminescence as a measure of living cells.

In another test the test system is MOLM14 F691L cells. Put plainly: MOLM14 F691L cell viability assay (Cell Titer Glo). It is filed as cell-based. To be noted: Homo sapiens, MOLM-14, 48 h. As to the method:
as §2, §3

The next test has as its target T2, IRAK4 (Homo sapiens, UniProt Q9NWZ3).
T2 sequence (Q9NWZ3 1-460): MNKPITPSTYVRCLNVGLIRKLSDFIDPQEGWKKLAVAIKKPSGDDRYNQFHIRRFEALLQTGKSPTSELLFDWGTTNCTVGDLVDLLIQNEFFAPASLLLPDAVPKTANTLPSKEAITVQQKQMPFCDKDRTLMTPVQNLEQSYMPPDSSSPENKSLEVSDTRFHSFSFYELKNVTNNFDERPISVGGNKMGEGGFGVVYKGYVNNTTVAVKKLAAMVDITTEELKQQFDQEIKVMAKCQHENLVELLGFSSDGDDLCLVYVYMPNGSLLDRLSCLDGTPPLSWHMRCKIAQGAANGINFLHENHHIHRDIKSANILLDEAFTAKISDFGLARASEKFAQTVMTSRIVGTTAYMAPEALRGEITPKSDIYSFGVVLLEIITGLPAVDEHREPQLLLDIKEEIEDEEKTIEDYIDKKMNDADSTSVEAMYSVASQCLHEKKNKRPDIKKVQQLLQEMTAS
Put plainly: RBC HotSpot Kinase Assay, IRAK4. On the set-up: purchased Reaction Biology (RBC), HotSpot kinase assay. The following applies: isolated kinase, 33P-ATP. It is filed as biochemical. The method, boiled down: as §1

The target of another test is T3, FLT3 (Homo sapiens, UniProt P36888).
T3 sequence (P36888 27-993): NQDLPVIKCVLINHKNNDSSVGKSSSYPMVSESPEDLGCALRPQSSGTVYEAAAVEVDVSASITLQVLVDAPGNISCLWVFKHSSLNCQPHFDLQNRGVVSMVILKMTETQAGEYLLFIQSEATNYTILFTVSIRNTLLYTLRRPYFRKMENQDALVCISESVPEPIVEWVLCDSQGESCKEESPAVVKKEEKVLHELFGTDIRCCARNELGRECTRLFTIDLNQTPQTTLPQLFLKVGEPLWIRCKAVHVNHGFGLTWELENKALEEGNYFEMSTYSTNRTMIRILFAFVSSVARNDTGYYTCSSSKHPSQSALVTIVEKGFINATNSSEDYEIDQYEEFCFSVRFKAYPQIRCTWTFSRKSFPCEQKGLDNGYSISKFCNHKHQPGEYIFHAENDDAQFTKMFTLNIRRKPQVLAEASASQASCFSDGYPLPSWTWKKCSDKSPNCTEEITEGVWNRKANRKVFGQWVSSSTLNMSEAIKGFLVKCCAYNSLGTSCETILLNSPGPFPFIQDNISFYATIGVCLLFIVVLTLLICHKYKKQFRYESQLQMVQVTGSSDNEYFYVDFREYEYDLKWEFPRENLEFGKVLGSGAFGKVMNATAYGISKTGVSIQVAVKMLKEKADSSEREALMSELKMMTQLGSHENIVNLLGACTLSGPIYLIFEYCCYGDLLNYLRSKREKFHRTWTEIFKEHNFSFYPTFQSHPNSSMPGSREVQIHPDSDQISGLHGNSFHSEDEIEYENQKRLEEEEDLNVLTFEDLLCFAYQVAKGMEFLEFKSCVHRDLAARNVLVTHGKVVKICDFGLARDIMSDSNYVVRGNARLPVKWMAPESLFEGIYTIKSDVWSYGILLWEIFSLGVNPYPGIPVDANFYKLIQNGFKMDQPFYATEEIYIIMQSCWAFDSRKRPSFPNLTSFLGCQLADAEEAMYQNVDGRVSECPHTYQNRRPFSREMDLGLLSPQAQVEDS
Put plainly: RBC HotSpot Kinase Assay, FLT3. It is filed as biochemical. To be noted: isolated kinase, 33P-ATP. On the set-up: purchased Reaction Biology (RBC), HotSpot kinase assay. The method, boiled down:
as §1

SMILES strings stand for the structures.

T1 sequence (P51617 whole entry): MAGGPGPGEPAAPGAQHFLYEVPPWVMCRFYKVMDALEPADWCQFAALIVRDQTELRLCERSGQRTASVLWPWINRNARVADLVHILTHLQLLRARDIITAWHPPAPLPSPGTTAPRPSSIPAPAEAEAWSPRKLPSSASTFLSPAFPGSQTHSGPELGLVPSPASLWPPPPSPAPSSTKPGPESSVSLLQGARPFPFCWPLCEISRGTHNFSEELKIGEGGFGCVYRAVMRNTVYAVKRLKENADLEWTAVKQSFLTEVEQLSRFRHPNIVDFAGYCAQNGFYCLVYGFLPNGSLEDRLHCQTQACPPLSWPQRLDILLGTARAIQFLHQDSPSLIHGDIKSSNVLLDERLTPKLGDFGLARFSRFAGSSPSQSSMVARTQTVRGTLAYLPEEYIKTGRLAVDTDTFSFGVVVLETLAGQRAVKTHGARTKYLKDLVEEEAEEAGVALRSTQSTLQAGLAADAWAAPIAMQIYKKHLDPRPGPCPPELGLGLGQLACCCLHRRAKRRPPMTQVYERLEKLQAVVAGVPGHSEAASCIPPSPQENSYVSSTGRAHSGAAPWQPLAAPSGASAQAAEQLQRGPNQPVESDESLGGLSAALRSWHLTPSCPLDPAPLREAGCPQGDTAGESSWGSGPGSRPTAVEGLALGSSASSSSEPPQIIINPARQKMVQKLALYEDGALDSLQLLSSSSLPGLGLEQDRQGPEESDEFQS

For orientation: IC50 means the concentration that gives 50% inhibition. Read a low IC50 as inhibition by little substance. For the compound `O=S1(=O)CCCCN1c1cn2c(-c3nc(N[C@H]4CNC[C@@H]4F)c(F)cc3F)cnc2cn1` [Compound 102, 2-(3-(3,5-difluoro-6-(((3S,4S)-4-fluoropyrrolidin-3-yl)amino)pyridin-2-yl)imidazo[1,2-a]pyrazin-6-yl)-1,2-thiazinane 1,1-dioxide], the IC50 came out at 0.281 µM against IRAK1; 0.386 µM with MOLM14 D835Y cells; 4.33 µM in the test on MOLM14 F691L cells; 0.006 µM on IRAK4; 0.002 µM at FLT3.

`O=S1(=O)CCCCN1c1cn2c(-c3nc(N[C@H]4CNCC[C@@H]4F)c(F)cc3F)cnc2cn1` [Compound 103, 2-(3-(3,5-difluoro-6-(((3S,4S)-4-fluoropiperidin-3-yl)amino)pyridin-2-yl)imidazo[1,2-a]pyrazin-6-yl)-1,2-thiazinane 1,1-dioxide]: the half-inhibitory concentration (IC50) turned out to be 0.265 µM against IRAK1; 0.193 µM in the test on MOLM14 D835Y cells; 1.37 µM with MOLM14 F691L cells; 0.013 µM on IRAK4; 0.0009 µM at FLT3.

With `O=S1(=O)CCCN1c1cn2c(-c3nc(N[C@@H]4CCCNC4)c(F)cc3F)cnc2cn1` [Compound 104, (R)-2-(3-(3,5-difluoro-6-(piperidin-3-ylamino)pyridin-2-yl)imidazo[1,2-a]pyrazin-6-yl)isothiazolidine 1,1-dioxide], the IC50 at IRAK1 is 0.009 µM; with MOLM14 D835Y cells it was 0.011 µM; in the test with MOLM14 F691L cells, 0.086 µM; against IRAK4 it was 0.001 µM; at FLT3 it was less than 0.0005 µM.

For `O=S1(=O)CCCN1c1cn2c(-c3nc(N[C@H]4CNC[C@@H]4F)c(F)cc3F)cnc2cn1` [Compound 105, 2-(3-(3,5-difluoro-6-(((3S,4S)-4-fluoropyrrolidin-3-yl)amino)pyridin-2-yl)imidazo[1,2-a]pyrazin-6-yl)isothiazolidine 1,1-dioxide], the concentration for half-maximal inhibition (IC50) against IRAK1 is 0.022 µM; in the test with MOLM14 D835Y cells it was 0.055 µM; with MOLM14 F691L cells, 0.686 µM; at IRAK4 it was 0.001 µM; at FLT3 it was less than 0.0005 µM.

Regarding `O=S1(=O)CCCN1c1cn2c(-c3nc(N[C@H]4CNCC[C@@H]4F)c(F)cc3F)cnc2cn1` [Compound 106, 2-(3-(3,5-difluoro-6-(((3S,4S)-4-fluoropiperidin-3-yl)amino)pyridin-2-yl)imidazo[1,2-a]pyrazin-6-yl)isothiazolidine 1,1-dioxide], the 50% inhibitory concentration (IC50) at IRAK1 is 0.021 µM; in the test with MOLM14 D835Y cells, 0.017 µM; in the test with MOLM14 F691L cells, 0.122 µM; at IRAK4, 0.003 µM; against FLT3, less than 0.0005 µM.

As for `O=C1CCCN1c1cn2c(-c3nc(N[C@H]4CNC[C@@H]4F)c(F)cc3F)cnc2cn1` [Compound 109, 1-(3-(3,5-difluoro-6-(((3S,4S)-4-fluoropyrrolidin-3-yl)amino)pyridin-2-yl)imidazo[1,2-a]pyrazin-6-yl)pyrrolidin-2-one], the IC50 amounted to 0.052 µM on IRAK1; 0.137 µM with MOLM14 D835Y cells; 1.93 µM with MOLM14 F691L cells; 0.004 µM on IRAK4; 0.0007 µM against FLT3.

Consider `O=C1COCCN1c1cn2c(-c3cccc(N[C@H]4CNC[C@@H]4F)n3)cnc2cn1` [Compound 110, 4-(3-(6-(((3S,4S)-4-fluoropyrrolidin-3-yl)amino)pyridin-2-yl)imidazo[1,2-a]pyrazin-6-yl)morpholin-3-one], for which the half-maximal inhibitory concentration (IC50) was 4.24 µM at IRAK1; 0.154 µM with MOLM14 D835Y cells; 1.45 µM with MOLM14 F691L cells; 0.098 µM on IRAK4; 0.003 µM against FLT3.

As for `O=C1COCCN1c1cn2c(-c3cccc(N[C@@H]4CCCNC4)n3)cnc2cn1` [Compound 111, (R)-4-(3-(6-(piperidin-3-ylamino)pyridin-2-yl)imidazo[1,2-a]pyrazin-6-yl)morpholin-3-one], the IC50 at IRAK1 turned out to be 2.13 µM; in the test with MOLM14 D835Y cells it was 0.086 µM; with MOLM14 F691L cells it was 0.344 µM; on IRAK4, 0.136 µM; at FLT3 it was 0.0005 µM.

With `O=C1COCCN1c1cn2c(-c3cccc(N[C@H]4CNCC[C@@H]4F)n3)cnc2cn1` [Compound 112, 4-(3-(6-(((3S,4S)-4-fluoropiperidin-3-yl)amino)pyridin-2-yl)imidazo[1,2-a]pyrazin-6-yl)morpholin-3-one], the IC50 is 1.86 µM against IRAK1; 0.049 µM in the test with MOLM14 D835Y cells; 0.183 µM with MOLM14 F691L cells; 0.14 µM at IRAK4; less than 0.0005 µM against FLT3.

Turning to `O=C1CCCCN1c1cn2c(-c3cccc(N[C@@H]4CCCNC4)n3)cnc2cn1` [Compound 113, (R)-1-(3-(6-(piperidin-3-ylamino)pyridin-2-yl)imidazo[1,2-a]pyrazin-6-yl)piperidin-2-one], the IC50 was found to be 9.94 µM against IRAK1; 0.172 µM in the test with MOLM14 D835Y cells; 0.579 µM in the test on MOLM14 F691L cells; 1.33 µM against IRAK4; 0.0007 µM against FLT3.

Consider `O=C1CCCCN1c1cn2c(-c3cccc(N[C@H]4CNC[C@@H]4F)n3)cnc2cn1` [Compound 114, 1-(3-(6-(((3S,4S)-4-fluoropyrrolidin-3-yl)amino)pyridin-2-yl)imidazo[1,2-a]pyrazin-6-yl)piperidin-2-one], for which the IC50 at IRAK1 was greater than 10 µM; with MOLM14 D835Y cells it was 0.46 µM; in the test on MOLM14 F691L cells, 4.86 µM; at IRAK4, 0.132 µM; against FLT3, 0.001 µM.

With `O=C1CCCCN1c1cn2c(-c3cccc(N[C@H]4CNCC[C@@H]4F)n3)cnc2cn1` [Compound 115, 1-(3-(6-(((3S,4S)-4-fluoropiperidin-3-yl)amino)pyridin-2-yl)imidazo[1,2-a]pyrazin-6-yl)piperidin-2-one], the IC50 on IRAK1 is 9.4 µM; with MOLM14 D835Y cells, 0.092 µM; in the test with MOLM14 F691L cells it was 0.273 µM; at IRAK4, 0.15 µM; at FLT3, less than 0.0005 µM.

`O=C1NCCN1c1cn2c(-c3cccc(N[C@@H]4CCCNC4)n3)cnc2cn1` [Compound 116, (R)-1-(3-(6-(piperidin-3-ylamino)pyridin-2-yl)imidazo[1,2-a]pyrazin-6-yl)imidazolidin-2-one]: the IC50 on IRAK1 worked out at 0.125 µM; with MOLM14 D835Y cells it was 0.039 µM; in the test with MOLM14 F691L cells, 0.193 µM; against IRAK4, 0.014 µM; on FLT3, 0.001 µM.

On to `O=C1NCCN1c1cn2c(-c3cccc(N[C@H]4CNC[C@@H]4F)n3)cnc2cn1` [Compound 117, 1-(3-(6-(((3S,4S)-4-fluoropyrrolidin-3-yl)amino)pyridin-2-yl)imidazo[1,2-a]pyrazin-6-yl)imidazolidin-2-one], for which the IC50 against IRAK1 came to 0.075 µM; in the test with MOLM14 D835Y cells, 0.041 µM; in the test with MOLM14 F691L cells it was 0.273 µM; against IRAK4 it was 0.002 µM; against FLT3 it was 0.0008 µM.

These data come from patent US12612410B2 (CHILDREN'S HOSPITAL MEDICAL CENTER, priority 2020, dated 2026).
